pIC50: −log10 of the molar value.
Legend:
Assay type in all cases: binding
[1] = molecular target: T1, XIAP His-BIR2 (124-240/C202A/C213G) (Homo sapiens, UniProt P98170, C202A/C213G); assay: XIAP-BIR2/SMAC Peptide AlphaScreen Assay; conditions: XIAP BIR2, AlphaScreen, Table 2; read-out: BIR2 IC50
T1 construct: additions of His-BIR2 (124-240/C202A/C213G), Biotinylated SMAC peptide

[2] = molecular target: N-His-Tb-BIR3(262-352, cIAP1) (Homo sapiens, UniProt Q13490); assay: cIAP1-BIR3 SMAC Peptide Fluorescence Polarization Assay (FPA); conditions: Table 3
Protocol: C. cIAP1-BIR3SMAC Peptide Fluorescence Polarization Assay (FPA)
Assays were performed in black, round-bottom, 96-well plates. The final assay volume was 30 μL prepared from additions of N-His-Tb-BIR3(262-352, cIAP1), fluoresceinated modified SMAC peptide, and test compounds in assay buffer consisting of 20 mM Sodium Phosphate, 1 mM EDTA, 50 mM NaCl, and 0.05% Pluronic F68. The reaction was incubated at room temperature for 60 minutes and fluorescence polarization of the reaction was detected on the LJL Plate Reader. […] The final concentration of reagents in the assay was 36.1 nM N-His-Tb-BIR3(262-352, cIAP1), 1.4 nM fluoresceinated modified SMAC peptide, and 1% DMSO. […] Compounds were dissolved at 10 mM in dimethylsulfoxide (DMSO) and evaluated at eight concentrations. IC50 values were derived by non-linear regression analysis.

[3] = molecular target: N-His-Tb-BIR3(241-356, XIAP) (Homo sapiens, UniProt P98170); assay: XIAP-BIR3 SMAC Peptide Fluorescence Polarization Assay (FPA)
N-His-Tb-BIR3(241-356, XIAP), sequence (P98170 241-356): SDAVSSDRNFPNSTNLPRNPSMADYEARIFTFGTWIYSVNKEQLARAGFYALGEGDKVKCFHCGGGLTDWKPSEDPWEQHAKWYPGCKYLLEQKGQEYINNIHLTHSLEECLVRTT

N-His-Tb-BIR3(262-352, cIAP1), sequence (Q13490 262-352): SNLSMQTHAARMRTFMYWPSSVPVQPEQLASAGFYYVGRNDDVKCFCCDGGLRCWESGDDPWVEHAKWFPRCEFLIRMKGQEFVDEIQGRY
T1 sequence (P98170 124-240 C202A/C213G): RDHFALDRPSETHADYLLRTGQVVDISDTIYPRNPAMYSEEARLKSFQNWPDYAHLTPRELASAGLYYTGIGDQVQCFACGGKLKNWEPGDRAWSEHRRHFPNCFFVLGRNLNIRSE

Row | Compound | pIC50 [1] | pIC50 [2] | pIC50 [3]
1 | CN[C@@H](C)C(=O)N[C@H](C(=O)N1C[C@@H]2C[C@H]1C(=O)N[C@@H](Cc1ccc3ccccc3c1)C(=O)N[C@H](C(=O)O)Cc1ccc(cc1)OCc1cn(nn1)[C@H]1C[C@@H](C(=O)N[C@@H](Cc3ccc4ccccc4c3)C(=O)N[C@H](C(=O)O)Cc3ccc(cc3)OCc3cn2nn3)N(C(=O)[C@@H](NC(=O)[C@H](C)NC)C(C)C)C1)C(C)C [Compound 110] | > 5.70 | > 7.30 | > 7.30
2 | CN[C@@H](C)C(=O)N[C@H](C(=O)N1C[C@@H]2C[C@H]1C(=O)N[C@@H](Cc1cccc3ccccc13)C(=O)N[C@H](C(=O)O)Cc1ccc(cc1)COc1cn(nn1)[C@H]1C[C@@H](C(=O)N[C@@H](Cc3cccc4ccccc34)C(=O)N[C@H](C(=O)O)Cc3ccc(cc3)OCc3cn2nn3)N(C(=O)[C@@H](NC(=O)[C@H](C)NC)C(C)C)C1)C(C)C [Compound 111] | > 5.70 | > 7.30 | > 7.30
3 | CN[C@@H](C)C(=O)N[C@H](C(=O)N1C[C@@H]2C[C@H]1C(=O)N[C@@H](Cc1ccccc1)C(=O)N[C@H](C(=O)O)Cc1ccc(cc1)OCCCn1cc(nn1)-c1ccc(cc1)-c1cn(nn1)[C@H]1C[C@@H](C(=O)N[C@@H](Cc3ccccc3)C(=O)N[C@H](C(=O)O)Cc3ccc(cc3)OCCCn3cc(nn3)-c3ccc(cc3)-c3cn2nn3)N(C(=O)[C@@H](NC(=O)[C@H](C)NC)C(C)C)C1)C(C)C [Compound 137] | > 5.70 | > 7.30 | > 7.30
